Structures can show the parent of a compound that is named as a salt.
Columns and labels:
SIRT1 = SIRT1 (Homo sapiens (Human), UniProt Q96EB6); test: SIRT1 inhibition assay (Fluor de Lys fluorescence-based assay kit); type: biochemical; settings: human recombinant enzyme; for inhibition at 60 µM: 60 μM compound, read-out: SirT1 (% inhib at 60 μM)
Experimental: (§1) SIRT1 and SIRT2 Inhibition Assays
(§2) All compounds were tested for inhibition of SIRT1 and SIRT2 using human recombinant enzymes available in the Fluor de Lys fluorescence-based assay kit (BIOMOL, AK555, AK556). All other required reagents were provided in the kit which was stored at −78° C. Before use, small aliquots of each enzyme (2-3 μL) were prepared, snap frozen in liquid nitrogen and stored at −78° C. Fresh dilutions of compounds were prepared in DMSO and further diluted in assay buffer. NAD^+ (12.5 […] at 4 mM) and Fluor de Lys SIRT1 or SIRT2 (12.5 μL at 100 μM) in assay buffer were added to a white 96 well plate, followed by compound (10 μL) and lastly enzyme (15 μL, 0.07 U/μL or SIRT1 and 0.3 U/μL for SIRT2). After incubation for 1 h at 37° C. a developer solution (50 μL) was added to each reaction. The developer solution contained 38 μL buffer, 10 μL developer and 2 μL nicotinamide (50 mM) per reaction. The plate was then incubated for 45 min at rt and then read using a Spectra Max Gemini fluorimeter with an excitation wavelength of 355 nm and an emission wavelength of 460 nm. SigmaPlot software was used to generate fit curves for raw plots and the equation for each curve was used to calculate IC50 data.

SIRT2 = SIRT2 (Homo sapiens (Human), UniProt Q8IXJ6); test: SIRT2 inhibition assay (Fluor de Lys fluorescence-based assay kit); type: biochemical; settings: human recombinant enzyme; for inhibition at 60 µM: 60 μM compound, read-out: SirT2 (% inhib at 60 μM)
Experimental: as §1, §2

SIRT2, sequence (Q8IXJ6 whole entry): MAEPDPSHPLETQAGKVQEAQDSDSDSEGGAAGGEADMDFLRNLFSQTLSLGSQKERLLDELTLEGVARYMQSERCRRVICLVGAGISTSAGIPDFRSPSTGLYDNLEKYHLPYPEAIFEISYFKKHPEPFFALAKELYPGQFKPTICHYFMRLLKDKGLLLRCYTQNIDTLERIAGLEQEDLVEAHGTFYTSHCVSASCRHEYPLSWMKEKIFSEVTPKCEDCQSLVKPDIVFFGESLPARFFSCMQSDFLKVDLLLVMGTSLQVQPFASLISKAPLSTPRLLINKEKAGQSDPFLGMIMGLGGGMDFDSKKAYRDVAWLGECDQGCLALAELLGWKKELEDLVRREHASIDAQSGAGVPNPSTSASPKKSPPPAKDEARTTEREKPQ
SIRT1, sequence (Q96EB6 whole entry): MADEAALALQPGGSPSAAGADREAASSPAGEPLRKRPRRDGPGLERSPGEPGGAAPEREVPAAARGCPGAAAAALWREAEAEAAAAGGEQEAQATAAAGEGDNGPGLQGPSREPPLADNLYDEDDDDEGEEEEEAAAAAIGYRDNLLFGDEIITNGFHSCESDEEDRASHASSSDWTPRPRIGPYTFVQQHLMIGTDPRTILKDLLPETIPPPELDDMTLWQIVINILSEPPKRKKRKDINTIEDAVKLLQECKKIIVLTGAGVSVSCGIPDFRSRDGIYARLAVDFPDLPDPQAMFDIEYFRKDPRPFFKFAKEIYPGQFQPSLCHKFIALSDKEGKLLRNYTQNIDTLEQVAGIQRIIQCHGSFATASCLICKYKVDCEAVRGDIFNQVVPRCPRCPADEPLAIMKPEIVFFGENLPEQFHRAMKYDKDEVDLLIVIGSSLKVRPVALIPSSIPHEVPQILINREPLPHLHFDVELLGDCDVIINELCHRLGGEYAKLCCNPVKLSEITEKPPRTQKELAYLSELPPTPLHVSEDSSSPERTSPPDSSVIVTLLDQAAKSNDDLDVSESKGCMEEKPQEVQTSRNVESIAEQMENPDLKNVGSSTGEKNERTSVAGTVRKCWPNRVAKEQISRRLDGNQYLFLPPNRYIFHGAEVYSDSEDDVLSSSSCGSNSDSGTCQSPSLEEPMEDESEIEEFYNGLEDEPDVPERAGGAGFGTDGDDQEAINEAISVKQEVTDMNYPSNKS

SMILES | inhibition at 60 µM (SIRT1) [%] | inhibition at 60 µM (SIRT2) [%] | IC50 (SIRT1) [µM] | IC50 (SIRT2) [µM]
COc1cccc(C(=O)NC(=S)Nc2ccc(NC(=O)CCCCN(C)C)cc2)c1 [Compound B2, 5-Dimethylamino-pentanoic acid {4-[3-(3-methoxy-benzoyl)-thioureido]-phenyl}-amide hydrochloride] | 25.3 | 30.5 | – | –
COc1cc(C(=O)NC(=S)Nc2ccc(NC(=O)CCCCN(C)C)cc2)cc(OC)c1OC [Compound D2, 5-Dimethylamino-pentanoic acid {4-[3-(3,4,5-trimethoxy-benzoyl)-thioureido]-phenyl}-amide hydrochloride] | – | 18 | – | –
CN(C)CCCCC(=O)Nc1ccc(NC(=S)NC(=O)c2cc(F)c(F)c(F)c2)cc1 [Compound D1, 5-Dimethylamino-pentanoic acid {4-[3-(3,4,5-trifluoro-benzoyl)-thioureido]-phenyl}-amide hydrochloride] | 7.5 | 46 | > 90 | 52.5 ± 12.3
CN(C)CCCCC(=O)Nc1ccc(NC(=S)NC(=O)c2cccc(Cl)c2)cc1 [Compound A5, 5-Dimethylamino-pentanoic acid {4-[3-(3-chloro-benzoyl)-thioureido]-phenyl}-amide hydrochloride] | 29.2 | 57.9 | – | –
COc1c(Br)cc(C(=O)NC(=S)Nc2ccc(NC(=O)CCCCN(C)C)cc2)cc1Br [Compound 383a, 5-Dimethylamino-pentanoic acid {4-[3-(3,5-dibromo-4-methoxy-benzoyl)-thioureido]-phenyl}-amide hydrochloride] | – | – | 47.2 ± 0.9 | 14 ± 1.7
Cc1ccc(C(=O)NC(=S)Nc2ccc(NC(=O)CCCCN(C)C)cc2)cc1Br [Compound 330a, 5-Dimethylamino-pentanoic acid {4-[3-(3-bromo-4-methyl-benzoyl)-thioureido]-phenyl}-amide hydrochloride] | 33 | 80.2 | 43.9 ± 7.3 | 31.9 ± 1.6
CC(C)c1ccc(C(=O)NC(=S)Nc2ccc(NC(=O)CCCCN(C)C)cc2)cc1 [Compound 331a, 5-Dimethylamino-pentanoic acid {4-[3-(4-isopropyl-benzoyl)-thioureido]-phenyl}-amide hydrochloride] | 52.9 | 78.4 | 64.8 ± 3.8 | 32.5 ± 0.07
Cc1cccc(C(=O)NC(=S)Nc2ccc(NC(=O)CCCCN(C)C)cc2)c1 [Compound B1, 5-Dimethylamino-pentanoic acid {4-[3-(3-methyl-benzoyl)-thioureido]-phenyl}-amide] | 5 | 20.9 | – | –
CCOc1c(Cl)cc(C(=O)NC(=S)Nc2ccc(NC(=O)CCCCN(C)C)cc2)cc1Cl [Compound 391a, 5-Dimethylamino-pentanoic acid {4-[3-(3,5-dichloro-4-ethoxy-benzoyl)-thioureido]-phenyl}-amide hydrochloride] | 81.5 | 87.9 | 29.3 ± 3.6 | 3 ± 0.1
CN(C)CCCCC(=O)Nc1ccc(NC(=S)NC(=O)c2cc(Cl)cc(Cl)c2)cc1 [Compound 360a, 5-Dimethylamino-pentanoic acid {4-[3-(3,5-dichloro-benzoyl)-thioureido]-phenyl}-amide hydrochloride] | 23.3 | 49.9 | – | –
COc1ccc(C(=O)NC(=S)Nc2ccc(NC(=O)CCCCN(C)C)cc2)cc1C(F)(F)F [Compound C6, 5-Dimethylamino-pentanoic acid {4-[3-(4-methoxy-3-trifluoromethyl-benzoyl)-thioureido]-phenyl}-amide hydrochloride] | 58.3 | 29.5 | 51.7 ± 6.9 | > 90
COc1ccc(C(=O)NC(=S)Nc2ccc(NC(=O)CCCCN(C)C)cc2)cc1Cl [Compound 350a, 5-Dimethylamino-pentanoic acid {4-[3-(3-chloro-4-methoxy-benzoyl)-thioureido]-phenyl}-amide hydrochloride] | 9 | 37.8 | – | –
CN(C)CCCCC(=O)Nc1ccc(NC(=S)NC(=O)c2cccc(Br)c2)cc1 [Compound A6, 5-Dimethylamino-pentanoic acid {4-[3-(3-bromo-benzoyl)-thioureido]-phenyl}-amide hydrochloride] | 70.5 | 81 | 39.9 ± 8.1 | 21.2 ± 7.2
COc1ccccc1C(=O)NC(=S)Nc1ccc(NC(=O)CCCCN(C)C)cc1 [Compound A3, 5-Dimethylamino-pentanoic acid {4-[3-(2-methoxy-benzoyl)-thioureido]-phenyl}-amide hydrochloride] | 48.7 | 66.8 | – | –
CN(C)CCCCC(=O)Nc1ccc(NC(=S)NC(=O)c2ccccc2Cl)cc1 [Compound A2, 5-Dimethylamino-pentanoic acid {4-[3-(2-chloro-benzoyl)-thioureido]-phenyl}-amide hydrochloride] | 29.3 | 54.3 | – | –

Other lines, results leading:

inhibition at 60 µM (SIRT1) [%] | inhibition at 60 µM (SIRT2) [%] | IC50 (SIRT1) [µM] | IC50 (SIRT2) [µM] | SMILES
73 | 85.4 | – | – | CCCCCc1ccc(C(=O)NC(=S)Nc2ccc(NC(=O)CCCCN(C)C)cc2)cc1 [Compound 345a, 5-Dimethylamino-pentanoic acid {4-[3-(4-pentyl-benzoyl)-thioureido]-phenyl}-amide hydrochloride]
9.1 | 57.1 | – | – | CCc1ccc(C(=O)NC(=S)Nc2ccc(NC(=O)CCCCN(C)C)cc2)cc1 [Compound 345d, 5-Dimethylamino-pentanoic acid {4-[3-(4-ethyl-benzoyl)-thioureido]-phenyl}-amide hydrochloride]
48 | 51 | – | – | COc1ccc(C(=O)NC(=S)Nc2ccc(NC(=O)CCCCN(C)C)cc2)cc1 [318a A3, 5-Dimethylamino-pentanoic acid {4-[3-(4-methoxy-benzoyl)-thioureido]-phenyl}-amide hydrochloride]
82.4 | 89 | – | – | CCCc1ccc(C(=O)NC(=S)Nc2ccc(NC(=O)CCCCN(C)C)cc2)cc1 [Compound 345c, 5-Dimethylamino-pentanoic acid {4-[3-(4-propyl-benzoyl)-thioureido]-phenyl}-amide hydrochloride]
56.3 | 90 | – | – | CCCCc1ccc(C(=O)NC(=S)Nc2ccc(NC(=O)CCCCN(C)C)cc2)cc1 [Compound 345b, 5-Dimethylamino-pentanoic acid {4-[3-(4-butyl-benzoyl)-thioureido]-phenyl}-amide hydrochloride]
53 | 61 | – | – | CN(C)CCCCC(=O)Nc1ccc(NC(=S)NC(=O)c2ccc(Cl)cc2)cc1 [318a A1, 5-Dimethylamino-pentanoic acid {4-[3-(4-chloro-benzoyl)-thioureido]-phenyl}-amide hydrochloride]
13.5 | 47.7 | 62.1 ± 2.3 | 39.5 ± 9.7 | CN(C)CCCCC(=O)Nc1ccc(NC(=S)NC(=O)c2ccc(Br)cc2)cc1 [Compound B5, 5-Dimethylamino-pentanoic acid {4-[3-(4-bromo-benzoyl)-thioureido]-phenyl}-amide hydrochloride]

Source: patent US9365508B2, “Aroyl thiourea derivatives” (University Court of the University of St Andrews, priority 2009, dated 2016)
